Data taken from the supplement of paper PMC5908809.

Experiments:
Experiment in all cases: relative IC50 (inflection point of fitted viability curve, relative to fitted max inhibition); higher = less sensitive
Settings in all cases: 72 h
[1] = test system: normal primary NK cells, pool 1 (3 donors), resting (IL-2 0 ng/mL)
Protocol: (§1)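 Drug sensitivity and resistance testing: 5 concentrations over a 10,000-fold range, 72 h at 37 °C, viability by CellTiter-Glo normalised to DMSO and benzethonium chloride controls. IC50 is the inflection point of a logistic fit (min fixed at 0, max fitted), so it is relative to the fitted maximal inhibition. Kept only where fitted max inhibition is at least 50%.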

[2] = test system: normal primary NK cells, pool 1 (3 donors) (IL-2 2.5 ng/mL)
Protocol: as §1

KAI3 (IL-2 2.5 ng/mL) = test system: KAI3 (IL-2 2.5 ng/mL)
Protocol: as §1

KHYG-1 (IL-2 2.5 ng/mL) = test system: KHYG-1 (IL-2 2.5 ng/mL)
Protocol: as §1

NKL (IL-2 2.5 ng/mL) = test system: NKL (IL-2 2.5 ng/mL)
Protocol: as §1

NK-YS (IL-2 2.5 ng/mL) = test system: NK-YS (IL-2 2.5 ng/mL)
Protocol: as §1

YT (IL-2 2.5 ng/mL) = test system: YT (IL-2 2.5 ng/mL)
Protocol: as §1

[3] = test system: normal primary NK cells, pool 2 (3 donors) (IL-2 2.5 ng/mL)
Protocol: as §1

DERL-7 (IL-2 2.5 ng/mL) = test system: DERL-7 (IL-2 2.5 ng/mL)
Protocol: as §1

SNK-6 (IL-2 2.5 ng/mL) = test system: SNK-6 (IL-2 2.5 ng/mL)
Protocol: as §1

NK-92 (IL-2 2.5 ng/mL) = test system: NK-92 (IL-2 2.5 ng/mL)
Protocol: as §1

[4] = test system: normal primary NK cells, pool 3 (3 donors) (IL-2 2.5 ng/mL)
Protocol: as §1

IMC-1 (IL-2 20 ng/mL) = test system: IMC-1 (IL-2 20 ng/mL)
Protocol: as §1

| SMILES | relative IC50 [1] [nM] | relative IC50 [2] [nM] | relative IC50 (KAI3 (IL-2 2.5 ng/mL)) [nM] | relative IC50 (KHYG-1 (IL-2 2.5 ng/mL)) [nM] | relative IC50 (NKL (IL-2 2.5 ng/mL)) [nM] | relative IC50 (NK-YS (IL-2 2.5 ng/mL)) [nM] | relative IC50 (YT (IL-2 2.5 ng/mL)) [nM] | relative IC50 [3] [nM] | relative IC50 (DERL-7 (IL-2 2.5 ng/mL)) [nM] | relative IC50 (SNK-6 (IL-2 2.5 ng/mL)) [nM] | relative IC50 (NK-92 (IL-2 2.5 ng/mL)) [nM] | relative IC50 [4] [nM] | relative IC50 (IMC-1 (IL-2 20 ng/mL)) [nM] |
| --- | --- | --- | --- | --- | --- | --- | --- | --- | --- | --- | --- | --- | --- |
| CNC(=O)c1cc(Oc2ccc(NC(=O)Nc3ccc(Cl)c(C(F)(F)F)c3)c(F)c2)ccn1 [Regorafenib] | 1940 | 3020 | 3360 | 2130 | 1570 | 1620 | 1660 | 1750 | 1190 | 86.7 | 1040 | – | – |
| C#Cc1cccc(Nc2ncnc3cc(OC)c(OCCCCCCC(=O)NO)cc23)c1 [CUDC-101] | 198 | 293 | 270 | 131 | 412 | 889 | 267 | 347 | 177 | 276 | 277 | 504 | 1020 |
| COc1cc2c(NC3CCN(C(C)C)CC3)nc(N3CCC(F)(F)CC3)nc2cc1OCCCN1CCCC1 [UNC0642] | 1560 | 1810 | 987 | – | 1640 | 2440 | 2690 | 3390 | 3160 | 1530 | – | 3450 | 2450 |
| Nc1ccn([C@@H]2O[C@H](CO)[C@@H](O)[C@@H]2O)c(=O)n1 [Cytarabine] | 1230 | 1440 | 50 | 27.3 | 67.1 | 330 | – | 1900 | 23 | 193 | 96 | 2370 | 85.5 |
| COc1ccc(C2=N[C@@H](c3ccc(Cl)cc3)[C@@H](c3ccc(Cl)cc3)N2C(=O)N2CCNC(=O)C2)c(OC(C)C)c1 [Nutlin-3] | 442 | 1490 | 731 | – | – | 1090 | 1440 | 1960 | 1470 | 1010 | – | 2750 | – |
| c1ccc2c(CCNc3ccc(Nc4ccncc4)cc3)c[nH]c2c1 [Serdemetan] | 516 | 914 | 436 | 1670 | 212 | 880 | 1820 | 1260 | 329 | 2980 | 1790 | 1140 | 2580 |
| Cc1cnc(Nc2ccc(OCCN3CCCC3)cc2)nc1Nc1cccc(S(=O)(=O)NC(C)(C)C)c1 | 715 | 262 | 203 | 262 | 112 | 534 | 977 | – | 233 | 876 | 1330 | – | – |
| Nc1nc2[nH]cnc2c(=S)[nH]1 [Thioguanine] | – | 2100 | 1780 | 322 | 1440 | 296 | 383 | 1900 | 2350 | 938 | 742 | – | 1300 |
| CNC(=O)c1ccc(-c2cnc3ncc(Cc4ccc5ncccc5c4)n3n2)cc1F [NVP-INC280] | – | > 1000 | – | – | – | – | – | – | – | – | – | > 1000 | – |
| C=CCc1cccc(/C=N/NC(=O)CN2CCN(Cc3ccccc3)CC2)c1O [PAC-1] | 3350 | 2890 | 679 | 543 | 591 | 2740 | 1620 | 2050 | 1980 | 996 | 845 | 1910 | 3020 |
| CCCCc1nc2cc(/C=C/C(=O)NO)ccc2n1CCN(CC)CC [Pracinostat] | 93.7 | 163 | 69 | 149 | 76.5 | 189 | 213 | 159 | 168 | 207 | 112 | 211 | 233 |
| O=C(Nc1cccc(Nc2ncc(Br)c(NCCc3cnc[nH]3)n2)c1)N1CCCC1 [BX-912] | – | 1270 | 474 | 507 | 1010 | 1850 | 1510 | 1170 | 1060 | 482 | 1170 | 1420 | 735 |
| Nc1nc(Cl)nc2c1ncn2[C@H]1C[C@H](O)[C@@H](CO)O1 [Cladribine] | 7.37 | 17.6 | 75.9 | 30.5 | 34.2 | 245 | 235 | 16.1 | 49.7 | 49.2 | 34.5 | 24.8 | 86 |
| COc1cc(OC2CCN(C)CC2)ccc1Nc1ncc2c(n1)n(C1CCCC1)c(=O)n2C [AZ 3146] | 2250 | 3160 | 1580 | 2060 | 2070 | 1720 | 2020 | 2410 | 2330 | 1870 | 3770 | 2660 | 2400 |
| CC(C)(C)c1cnc(CSc2cnc(NC(=O)C3CCNCC3)s2)o1 [SNS-032] | 53.4 | 45.8 | 75.8 | 277 | 22.6 | 38.6 | 84.1 | 54.3 | 61.3 | 74.8 | 224 | 102 | 36.2 |
| Cc1cc(C)c(/C=C2\C(=O)Nc3ccccc32)[nH]1 [Semaxanib] | > 10000 | > 10000 | – | – | > 10000 | – | – | – | > 10000 | – | – | > 10000 | – |
| C[C@]1(c2nc3c(C(N)=O)cccc3[nH]2)CCCN1 [Veliparib] | 3590 | 2020 | – | – | – | – | – | – | – | – | – | – | – |
| O=C(/C=C/c1cccc(S(=O)(=O)Nc2ccccc2)c1)NO [Belinostat] | 83.9 | 113 | 82.5 | 128 | 152 | 182 | 213 | 143 | 161 | 156 | 81.7 | 200 | 173 |
| C=CCNC1=C2C[C@@H](C)C[C@H](OC)[C@H](O)[C@@H](C)/C=C(\C)[C@H](OC(N)=O)[C@@H](OC)/C=C\C=C(/C)C(=O)NC(=CC1=O)C2=O [Tanespimycin] | 145 | 79.8 | 76.3 | 247 | 59.1 | 80.2 | 248 | 127 | 126 | 106 | 123 | 290 | 291 |
| COc1cc(C(=O)O)ccc1NC(=O)[C@@H]1N[C@@H](CC(C)(C)C)[C@](C#N)(c2ccc(Cl)cc2F)[C@H]1c1cccc(Cl)c1F [RG7388] | 29.7 | 132 | 39.1 | 3560 | 2450 | 86.3 | 209 | – | 97 | 30.2 | 2120 | – | – |
| C[C@@H](Oc1cc(-n2cnc3ccc(CN4CCN(C)CC4)cc32)sc1C(N)=O)c1ccccc1C(F)(F)F | 374 | 1780 | 187 | 17.1 | 46 | 90.5 | 53 | 1640 | 27.8 | 32.2 | 7.34 | 2340 | 37.1 |
